Columns and labels:
[1] = biological target: T1, BTK enzyme (recombinant full-length BTK, hBTK) (Homo sapiens, UniProt Q06187); assay: BTK enzyme activity assay, LANCE TR-FRET; format: biochemical; conditions: 50 pM hBTK, 2 μM biotin-A5-peptide, 25 μM ATP; 60 min compound & enzyme incubation; read-out: IC50 BTK activity value
T1 construct: recombinant protein from baculovirus-transfected Sf9 cells: full-length BTK, 6HIS-tag cleaved; 6HIS (cleaved yes); made in house; host or cells: baculovirus-transfected Sf9 cells

[2] = tested on: HeLa cells; assay: [3H]Adenosine uptake functional cellular assay; format: cell-based; conditions: Homo sapiens, HeLa, accumulation of [3H]adenosine into HeLa cells; compound range 10 μM to […]; read-out: Adenosine uptake inhibition IC50
In short: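 Inhibition of adenosine uptake was measured in HeLa cells (ATCC CCL-2) by following accumulation of tritiated adenosine. Cells were kept overnight at 37° C. with 5% (v/v) CO2, then switched to 40 μL HBSS plus 5% (v/v) FBS. 20 μL of 500 nM [3H]adenosine was added, and uptake was counted on a Topcount NXT reader.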

T1 sequence (Q06187 whole entry): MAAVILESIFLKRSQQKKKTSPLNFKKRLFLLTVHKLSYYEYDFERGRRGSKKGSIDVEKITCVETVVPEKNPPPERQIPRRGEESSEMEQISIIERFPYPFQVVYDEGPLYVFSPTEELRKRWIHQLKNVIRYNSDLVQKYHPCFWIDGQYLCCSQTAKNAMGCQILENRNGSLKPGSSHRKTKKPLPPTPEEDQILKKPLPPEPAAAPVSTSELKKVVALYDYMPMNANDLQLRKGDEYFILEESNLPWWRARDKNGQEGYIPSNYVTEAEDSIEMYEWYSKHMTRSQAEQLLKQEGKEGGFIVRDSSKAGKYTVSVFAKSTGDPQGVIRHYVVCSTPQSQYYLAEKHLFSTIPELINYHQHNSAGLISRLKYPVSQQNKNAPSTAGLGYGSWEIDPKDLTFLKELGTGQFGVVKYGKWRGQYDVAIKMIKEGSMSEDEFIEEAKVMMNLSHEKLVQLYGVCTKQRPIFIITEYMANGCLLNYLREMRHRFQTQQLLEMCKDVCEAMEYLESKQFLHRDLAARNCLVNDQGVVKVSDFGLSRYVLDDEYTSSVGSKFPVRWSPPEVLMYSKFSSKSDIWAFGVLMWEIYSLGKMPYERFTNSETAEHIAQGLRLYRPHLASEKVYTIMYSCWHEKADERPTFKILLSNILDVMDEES

Row | Structure (SMILES) | IC50 [1] [nM] | IC50 [2] [nM]
1 | N#Cc1cc(C(=O)Nc2cc(C(F)(F)F)ccn2)ccc1-c1nc([C@@H]2CC[C@H]3CCC(=O)N3C2)n2ccnc(N)c12 [Example 123, 4-{8-amino-3-[(6R,8aS)-3-oxooctahydroindolizin-6-yl]imidazo[1,5-a]pyrazin-1-yl}-3-cyano-N-[4-(trifluoromethyl)pyridin-2-yl]benzamide] | 6.3 | 719
2 | CN1CC(=O)N2C[C@@H](c3nc(-c4ccc(C(=O)Nc5cc(C(F)(F)F)ccn5)cc4)c4c(N)nccn34)CC[C@@H]2C1 [Example 51, 4-{8-amino-3-[(7S,9aR)-2-methyl-4-oxooctahydro-2H-pyrido[1,2-a]pyrazin-7-yl]imidazo[1,5-a]pyrazin-1-yl}-N-[4-(trifluoromethyl)pyridin-2-yl]benzamide] | 1.6 | 188
3 | Nc1nccn2c([C@@H]3CC[C@H]4CCC(=O)N4C3)nc(-c3ccc(C(=O)Nc4cc(C(F)(F)F)[nH]n4)cc3)c12 [Example 170, 4-(8-amino-3-((6R,8aS)-3-oxooctahydroindolizin-6-yl)imidazo[1,5-a]pyrazin-1-yl)-N-(5-(trifluoromethyl)-1H-pyrazol-3-yl)benzamide] | 36.9 | 6750
4 | Nc1nccn2c([C@@H]3CC[C@@H]4CCC(=O)N4C3)nc(-c3ccc(C(=O)Nc4cc(C(F)(F)F)ccn4)cc3)c12 [Example 11, 4-(8-amino-3-((6R,8aR)-3-oxooctahydroindolizin-6-yl)imidazo[1,5-a]pyrazin-1-yl)-N-(4-(trifluoromethyl)pyridin-2-yl)benzamide] | 15.3 | 511
5 | CCOc1cc(C(=O)Nc2cc(C3CC3)ccn2)c(F)cc1-c1nc([C@@H]2CC[C@H]3CCC(=O)N3C2)n2ccnc(N)c12 [Example 137, 4-{8-amino-3-[(6R,8aS)-3-oxooctahydroindolizin-6-yl]imidazo[1,5-a]pyrazin-1-yl}-N-(4-cyclopropylpyridin-2-yl)-5-ethoxy-2-fluorobenzamide] | 2 | 1200
6 | CC(F)(F)Oc1cc(C(=O)Nc2cc(C(F)(F)F)ccn2)ccc1-c1nc([C@@H]2CC[C@H]3CCC(=O)N3C2)n2c(Cl)cnc(N)c12 [Example 216, 4-{8-amino-5-chloro-3-[(6R,8aS)-3-oxooctahydroindolizin-6-yl]imidazo[1,5-a]pyrazin-1-yl}-3-(1,1-difluoroethoxy)-N-[4-(trifluoromethyl)pyridin-2-yl]benzamide] | 6.6 | 895
7 | COc1cc(C(=O)Nc2cc(C(F)(F)F)ccn2)ccc1-c1nc([C@H]2CC[C@@H]3CC(C)(C)C(=O)N3C2)n2ccnc(N)c12 [Example 101, 4-{8-amino-3-[(6S,8aR)-2,2-dimethyl-3-oxooctahydroindolizin-6-yl]imidazo[1,5-a]pyrazin-1-yl}-3-methoxy-N-[4-(trifluoromethyl)pyridin-2-yl]benzamide] | 45.4 | 487
8 | Nc1nccn2c([C@@H]3CC[C@H]4CCC(=O)N4C3)nc(-c3ccc(C(=O)Nc4cc(C(F)(F)F)n(C5CCCC5)n4)cc3)c12 [Example 180, 4-{8-amino-3-[(6R,8aS)-3-oxooctahydroindolizin-6-yl]imidazo[1,5-a]pyrazin-1-yl}-N-[1-cyclopentyl-5-(trifluoromethyl)-1H-pyrazol-3-yl]benzamide] | 285 | 230
9 | Nc1nccn2c([C@H]3CC[C@@H]4C[C@@H](O)C(=O)N4C3)nc(-c3ccc(C(=O)Nc4cc(C(F)(F)F)ccn4)cc3)c12 [Example 67, 4-{8-amino-3-[(2R,6S,8aR)-2-hydroxy-3-oxooctahydroindolizin-6-yl]imidazo[1,5-a]pyrazin-1-yl}-N-[4-(trifluoromethyl)pyridin-2-yl]benzamide] | 3.7 | 410

These reach a lower IC50 [1]. Values come first.

Row | IC50 [1] [nM] | IC50 [2] [nM] | Structure (SMILES)
10 | 1.5 | 184 | COC(C)c1ccnc(NC(=O)c2ccc(-c3nc([C@@H]4CC[C@H]5CCC(=O)N5C4)n4ccnc(N)c34)cc2)c1 (stereo partly drawn) [Example 99, 4-{8-amino-3-[(6R,8aS)-3-oxooctahydroindolizin-6-yl]imidazo[1,5-a]pyrazin-1-yl}-N-[4-(1-methoxyethyl)pyridin-2-yl]benzamide]
11 | 1.2 | 1490 | COc1cc(C(=O)Nc2cc(C(F)(F)F)ccn2)c(F)cc1-c1nc([C@@H]2CC[C@H]3CCC(=O)N3C2)n2c(Cl)cnc(N)c12 [Example 132, 4-{8-amino-5-chloro-3-[(6R,8aS)-3-oxooctahydroindolizin-6-yl]imidazo[1,5-a]pyrazin-1-yl}-2-fluoro-5-methoxy-N-[4-(trifluoromethyl)pyridin-2-yl]benzamide]
12 | 0.99 | 1540 | CCOc1cc(C(=O)Nc2cc(C(F)(F)F)ccn2)ccc1-c1nc([C@@H]2CC[C@H]3CCC(=O)N3C2)n2c(F)cnc(N)c12 [Example 161, 4-{8-amino-5-fluoro-3-[(6R,8aS)-3-oxooctahydroindolizin-6-yl]imidazo[1,5-a]pyrazin-1-yl}-3-ethoxy-N-[4-(trifluoromethyl)pyridin-2-yl]benzamide]
13 | 0.63 | 175 | Cc1cnc(NC(=O)c2ccc(-c3nc([C@@H]4CC[C@H]5CCC(=O)N5C4)n4ccnc(N)c34)c(Cl)c2)s1 [Example 195, 4-(8-amino-3-((6R,8aS)-3-oxooctahydroindolizin-6-yl)imidazo[1,5-a]pyrazin-1-yl)-3-chloro-N-(5-methylthiazol-2-yl)benzamide]
14 | 0.51 | 463 | COc1cc(C(=O)Nc2cc(C(F)(F)F)ccn2)ccc1-c1nc([C@@H]2CC[C@H]3CC(C)(C)C(=O)N3C2)n2ccnc(N)c12 [Example 100, 4-{8-amino-3-[(6R,8aS)-2,2-dimethyl-3-oxooctahydroindolizin-6-yl]imidazo[1,5-a]pyrazin-1-yl}-3-methoxy-N-[4-(trifluoromethyl)pyridin-2-yl]benzamide]
15 | 0.5 | 296 | COc1cc(C(=O)Nc2cc(C3CC3)ccn2)ccc1-c1nc([C@@H]2CC[C@H]3[C@@H](C)OC(=O)N3C2)n2ccnc(N)c12 [Example 53, 4-{8-amino-3-[(1R,6R,8aS)-1-methyl-3-oxohexahydro[1,3]oxazolo[3,4-a]pyridin-6-yl]imidazo[1,5-a]pyrazin-1-yl}-N-(4-cyclopropylpyridin-2-yl)-3-methoxybenzamide]
16 | 0.48 | 732 | Nc1nccn2c([C@@H]3CC[C@H]4CCC(=O)N4C3)nc(-c3ccc(C(=O)Nc4cc(C(F)(F)F)ccn4)cc3OC(F)F)c12 [Example 71, 4-{8-amino-3-[(6R,8aS)-3-oxooctahydroindolizin-6-yl]imidazo[1,5-a]pyrazin-1-yl}-3-(difluoromethoxy)-N-[4-(trifluoromethyl)pyridin-2-yl]benzamide]
17 | 0.27 | 82.5 | CCN1CC(=O)N2C[C@H](c3nc(-c4ccc(C(=O)Nc5cc(C(F)(F)F)ccn5)cc4)c4c(N)nccn34)CC[C@H]2C1 [Example 80, 4-(8-amino-3-((7R,9aS)-2-ethyl-4-oxooctahydro-1H-pyrido[1,2-a]pyrazin-7-yl)imidazo[1,5-a]pyrazin-1-yl)-N-(4-(trifluoromethyl)pyridin-2-yl)benzamide]

Reference: patent publication US20140206681A1, “BTK INHIBITORS” (priority 2013, published 2014)
